According to patent US20110213028A1, “FATTY ACID MYCOPHENOLATE DERIVATIVES AND THEIR USES” (CATABASIS PHARMACEUTICALS, INC., priority 2010, published 2011):

Key:
[1] = test system: IL-1β; assay: Effect on IL-1β expression in LPS-stimulated RAW 264.7 macrophages; format: cell-based; conditions: RAW 264.7 mouse macrophages, dosed at 50 μM and 100 μM, 100 ng/ml LPS stimulation, FIG. 1
Method: RAW264.7 macrophages were seeded at a density of 100,000 cells/well in a 96-well plate in DMEM supplemented with 10% FBS and Penn/strep. 16 hours later, medium was aspirated and replaced with 90 μL/well of serum-free DMEM. Test compounds were brought up in 100% EtOH to a concentration of 100 mM and then diluted 1:100 in 100% FBS for a stock solution consisting of 1mM compound and 1% EtOH. These stock solutions were then diluted 1:10 in FBS supplemented with 1% EtOH to generate a 100 μM of the test compounds. 10 μL was then added to the RAW246.7 cells to generate final concentrations consisting of 10 μM of the fatty acid mycophenolate conjugate, along with vehicle only control. The compounds were allowed to pre-incubate for 2 hours before stimulation of 100 ng/ml LPS (10 μL of 1 μg/ml LPS was added to each well). Following 3 hours of LPS stimulation, cells were washed once in 1 ×PBS, aspirated dry, and flash frozen in liquid nitrogen. RNA was then isolated and converted to cDNA using the Cells to cDNA kit (Ambion) according to the manufacturer's protocol. IL-1β transcript levels were then measured using Taqman primer/probe assay sets (Applied Biosystems), normalized to GAPDH using the deltaCt method, and the data expressed relative to vehicle only control. FIG. 1 summarizes the effects of compounds I-1, I-2, I-5, and I-10 on the expression of IL-1β in RAW 264.7 mouse macrophages. All four compounds were dosed at 50 μM and 100 μM.

[2] = test system: SLE-prone MRLlpr/lpr mice; conditions: 100 mg/kg in drinking water; cited from earlier work
[3] = test system: systemic lupus erythematosus patients; conditions: mean dose of 1,328 mg/a day over a 1 or 2 year period; cited from earlier work
[4] = test system: (NZB X NZW)F1 mouse model of systemic lupus erythematosus; conditions: 200 mg/kg/day over a 6 week period; cited from earlier work

SMILES	IL-1β expression (transcript level relative to vehicle only control) [1]	survival, C3 deposition in glomeruli, albuminuria and haematuria [2]	disease flares [3]	autoimmunity and mortality [4]
CC/C=C\C/C=C\C/C=C\C/C=C\C/C=C\C/C=C\CCC(=O)NCCNC(=O)CC/C(C)=C/Cc1c(O)c2c(c(C)c1OC)COC2=O [Compound I-1, (4Z,7Z,10Z,13Z,16Z,19Z)-N-(2((E)-6-(4-hydroxy-6-methoxy-7-methyl-3-oxo-1,3-dihydroisobenzofuran-5-yl)-4-methylhex-4-enamido)ethyl)docosa-4,7,10,13,16,19-hexaenamide]	statistically significant decrease in IL-1β expression			
CC/C=C\C/C=C\C/C=C\C/C=C\C/C=C\C/C=C\CCC(=O)NCCOCCNC(=O)CC/C(C)=C/Cc1c(O)c2c(c(C)c1OC)COC2=O [Compound I-2, (4Z,7Z,10Z,13Z,16Z,19Z)-N-(2-(2((E)-6-(4-hydroxy-6-methoxy-7-methyl-3-oxo-1,3-dihydroisobenzofuran-5-yl)-4-methylhex-4-enamido)ethoxy)ethyl)docosa-4,7,10,13,16,19-hexaenamide]	statistically significant decrease in IL-1β expression			
CC/C=C\C/C=C\C/C=C\C/C=C\C/C=C\C/C=C\CCC(=O)NCCSSCCNC(=O)CC/C(C)=C/Cc1c(O)c2c(c(C)c1OC)COC2=O [Compound I-5, (4Z,7Z,10Z,13Z,16Z,19Z)-N-(2-(2-(2-((E)-6-(4-hydroxy-6-methoxy-7-methyl-3-oxo-1,3-dihydroisobenzofuran-5-yl)-4-methylhex-4-enamido)ethyl)disulfanyl)ethyl)docosa-4,7,10,13,16,19-hexaenamide]	statistically significant decrease in IL-1β expression			
CC/C=C\C/C=C\C/C=C\C/C=C\C/C=C\CCCC(=O)NCCNC(=O)CC/C(C)=C/Cc1c(O)c2c(c(C)c1OC)COC2=O [Compound I-10, (5Z,8Z,11Z,14Z,17Z)-N-(2-((E)-6-(4-hydroxy-6-methoxy-7-methyl-3-oxo-1,3-dihydroisobenzofuran-5-yl)-4-methylhex-4-enamido)ethyl)icosa-5,8,11,14,17-pentaenamide]	statistically significant decrease in IL-1β expression			
COc1c(C)c2c(c(O)c1C/C=C(\C)CCC(=O)OCCN1CCOCC1)C(=O)OC2 [mycophenolate mofetil]		able to prolong survival, reduce the extent of deposition of C3 in glomeruli and reduce the occurrence of albuminuria and haematuria	effective in reducing disease flares	able to suppress autoimmunity and mortality
